Test [1] deals with T1, wildtype LRRK2 (Homo sapiens, UniProt Q5S007).
T1 construct: expressed in transfected cells; host or cells: HEK293 (ATCC CRL-1573), transient transfection, ubiquitin promoter
As to the kind of experiment: LRRK2 degradation assay, wildtype LRRK2-HiBit expressed from plasmid in HEK293 cells. In kind it is cell-based. Particulars: HEK293 cells transfected with HiBit-tagged wildtype LRRK2, 24 hours compound incubation; for Dmax: read-out: **WT Dmax (%); for DC50: read-out: *WT DC50. On the procedure:
(§1) The assay measures the degradation of wildtype and G2019S LRRK2 tagged with a HiBit tag on the C-terminus of the protein that was expressed from a mammalian expression vector, driven by the ubiquitin promoter in HEK293 cells. Each compound dose-response was repeated on two separate days, on three separate plates each day.
(§2) Plasmid Preparation. Transfection mixes were assembled as follows and incubated for 30 minutes at room temperature. In a 15 mL tube, 5.25 mL Opti-MEM (no additions) was mixed with 17 μL Firefly Luciferase plasmid at 1 μg/μL and 158 μL WT plasmid DNA at 1 μg/μL (175 μg total DNA) were mixed by flicking. In a new 15 mL tube, 5.25 mL OptiMEM was mixed with 17 μL Firefly Luciferase plasmid at 1 μg/μL and 158 μL G2019S plasmid DNA at 1 μg/μL (175 μg total DNA) were mixed by flicking. X-tremeGene HP was mixed thoroughly using a vortex. Next, 175 μL was added to each tube and flicked to mix. Both tubes were left to incubate for 30 minutes at room temperature.
(§3) While the transfection mixes were incubating, HEK293 cells (acquired from ATCC; ATCC CRL-1573) were harvested with trypsin. Once cells are detached, the cells were resuspended in 12 mL OptiMEM+5% FBS and transferred to a 50 mL tube. The cells were mixed well and counted. Using OptiMEM+5% FBS, the cells were diluted in two 250 mL conical tubes at 0.71×10^6 cells/mL in 70 mL. One tube was labeled “WT” and the other “G2019S”. The WT and G2019S transfection mixes were added dropwise to the corresponding 250 mL tubes. The tubes were mixed first by pipetting then by swirling. The tubes were incubated at room temperature for at least 5 minutes.
(§4) Each tube was swirled before dispensing and after every three plates. Seventy microliters of cells were dispensed with WT or G2019S DNA to seven plates each. Three plates of each were tested with compound plate one (preparation described below) and three plates of each were tested with compound plate two (preparation described below). The first plate from each set served as a “prime” plate and was not used to test compounds. Each plate was incubated in the hood for 10 minutes before placing in the 37° C. incubator for 24 hours.
(§5) Preparation of Compound and Assay Plates. Two compound plates were made using 96 well polypropylene plates. Compounds were made up at 10 mM and were diluted to 1 mM in 30 μL. Each dose response curve included a well of DMSO, as a negative control and for normalization, and a well of 0.5 μM of Exemplary Compound 4 as a positive control. In addition to seven test compounds, each plate also included a dose response of Exemplary Compound 4. The compound plates were spun down along at 1200 rpm for 2 minutes.
(§6) The two compound plates were then mixed and 2 μL was diluted in intermediate plates having 248 μL of Opti-Mem in each well. Next, 10 μL diluted compounds from the intermediate plates were added to each test plate (three WT and three G2019S plates per compound plate for a total of 12 assay plates). The plates were incubated for 24 hours at 37° C.
(§7) All assay plates and all Nano-Glo Dual-Luciferase Reporter Assay System components (except for the DLR substrate) were equilibrated to room temperature. Next, the luciferase buffer was mixed with the lyophilized amber bottle until fully dissolved, and 75 μL of the luciferase mixture was added to each well of each assay plate. The assay plates were incubated for 10 minutes at room temperature with shaking for at least 5 minutes, and then read on a plate reader.
(§8) Developing Plates and Analyzing Data. One milliliter of DLR substrate and 1 mL LgBiT Protein were added to the Stop and Glo buffer, and 75 μL of the mixture was added to each well of each plate. Optically clear seals were added to each plate and each plate was incubated for 20 minutes with shaking for at least 10 minutes, and then read on a plate reader. […]

Test [2] addresses T2, G2019S LRRK2 (Homo sapiens, UniProt Q5S007, G2019S).
T2 construct: expressed in transfected cells; host or cells: HEK293 (ATCC CRL-1573), transient transfection, ubiquitin promoter
As to the kind of experiment: LRRK2 degradation assay, G2019S LRRK2-HiBit expressed from plasmid in HEK293 cells. Particulars: HEK293 cells transfected with HiBit-tagged G2019S LRRK2, 24 hours compound incubation. In kind it is cell-based. On the procedure: as §1, §2, §3, §4, §5, §6, §7, §8
On the technique in general: The HiBiT peptide binds its large partner to form an active luciferase.

These results are taken from patent publication US20250114356A1, “INDAZOLE BASED COMPOUNDS AND ASSOCIATED METHODS OF USE” (Arvinas Operations, Inc., priority 2020, published 2025).

SMILES strings stand for the structures. A value given as a limit tells only on which side of the number the result lay.

For orientation: Dmax means the largest share of the target that was removed. As a reminder, the DC50 is the concentration at which degradation of the target reaches its halfway point.

T1 sequence (Q5S007 whole entry): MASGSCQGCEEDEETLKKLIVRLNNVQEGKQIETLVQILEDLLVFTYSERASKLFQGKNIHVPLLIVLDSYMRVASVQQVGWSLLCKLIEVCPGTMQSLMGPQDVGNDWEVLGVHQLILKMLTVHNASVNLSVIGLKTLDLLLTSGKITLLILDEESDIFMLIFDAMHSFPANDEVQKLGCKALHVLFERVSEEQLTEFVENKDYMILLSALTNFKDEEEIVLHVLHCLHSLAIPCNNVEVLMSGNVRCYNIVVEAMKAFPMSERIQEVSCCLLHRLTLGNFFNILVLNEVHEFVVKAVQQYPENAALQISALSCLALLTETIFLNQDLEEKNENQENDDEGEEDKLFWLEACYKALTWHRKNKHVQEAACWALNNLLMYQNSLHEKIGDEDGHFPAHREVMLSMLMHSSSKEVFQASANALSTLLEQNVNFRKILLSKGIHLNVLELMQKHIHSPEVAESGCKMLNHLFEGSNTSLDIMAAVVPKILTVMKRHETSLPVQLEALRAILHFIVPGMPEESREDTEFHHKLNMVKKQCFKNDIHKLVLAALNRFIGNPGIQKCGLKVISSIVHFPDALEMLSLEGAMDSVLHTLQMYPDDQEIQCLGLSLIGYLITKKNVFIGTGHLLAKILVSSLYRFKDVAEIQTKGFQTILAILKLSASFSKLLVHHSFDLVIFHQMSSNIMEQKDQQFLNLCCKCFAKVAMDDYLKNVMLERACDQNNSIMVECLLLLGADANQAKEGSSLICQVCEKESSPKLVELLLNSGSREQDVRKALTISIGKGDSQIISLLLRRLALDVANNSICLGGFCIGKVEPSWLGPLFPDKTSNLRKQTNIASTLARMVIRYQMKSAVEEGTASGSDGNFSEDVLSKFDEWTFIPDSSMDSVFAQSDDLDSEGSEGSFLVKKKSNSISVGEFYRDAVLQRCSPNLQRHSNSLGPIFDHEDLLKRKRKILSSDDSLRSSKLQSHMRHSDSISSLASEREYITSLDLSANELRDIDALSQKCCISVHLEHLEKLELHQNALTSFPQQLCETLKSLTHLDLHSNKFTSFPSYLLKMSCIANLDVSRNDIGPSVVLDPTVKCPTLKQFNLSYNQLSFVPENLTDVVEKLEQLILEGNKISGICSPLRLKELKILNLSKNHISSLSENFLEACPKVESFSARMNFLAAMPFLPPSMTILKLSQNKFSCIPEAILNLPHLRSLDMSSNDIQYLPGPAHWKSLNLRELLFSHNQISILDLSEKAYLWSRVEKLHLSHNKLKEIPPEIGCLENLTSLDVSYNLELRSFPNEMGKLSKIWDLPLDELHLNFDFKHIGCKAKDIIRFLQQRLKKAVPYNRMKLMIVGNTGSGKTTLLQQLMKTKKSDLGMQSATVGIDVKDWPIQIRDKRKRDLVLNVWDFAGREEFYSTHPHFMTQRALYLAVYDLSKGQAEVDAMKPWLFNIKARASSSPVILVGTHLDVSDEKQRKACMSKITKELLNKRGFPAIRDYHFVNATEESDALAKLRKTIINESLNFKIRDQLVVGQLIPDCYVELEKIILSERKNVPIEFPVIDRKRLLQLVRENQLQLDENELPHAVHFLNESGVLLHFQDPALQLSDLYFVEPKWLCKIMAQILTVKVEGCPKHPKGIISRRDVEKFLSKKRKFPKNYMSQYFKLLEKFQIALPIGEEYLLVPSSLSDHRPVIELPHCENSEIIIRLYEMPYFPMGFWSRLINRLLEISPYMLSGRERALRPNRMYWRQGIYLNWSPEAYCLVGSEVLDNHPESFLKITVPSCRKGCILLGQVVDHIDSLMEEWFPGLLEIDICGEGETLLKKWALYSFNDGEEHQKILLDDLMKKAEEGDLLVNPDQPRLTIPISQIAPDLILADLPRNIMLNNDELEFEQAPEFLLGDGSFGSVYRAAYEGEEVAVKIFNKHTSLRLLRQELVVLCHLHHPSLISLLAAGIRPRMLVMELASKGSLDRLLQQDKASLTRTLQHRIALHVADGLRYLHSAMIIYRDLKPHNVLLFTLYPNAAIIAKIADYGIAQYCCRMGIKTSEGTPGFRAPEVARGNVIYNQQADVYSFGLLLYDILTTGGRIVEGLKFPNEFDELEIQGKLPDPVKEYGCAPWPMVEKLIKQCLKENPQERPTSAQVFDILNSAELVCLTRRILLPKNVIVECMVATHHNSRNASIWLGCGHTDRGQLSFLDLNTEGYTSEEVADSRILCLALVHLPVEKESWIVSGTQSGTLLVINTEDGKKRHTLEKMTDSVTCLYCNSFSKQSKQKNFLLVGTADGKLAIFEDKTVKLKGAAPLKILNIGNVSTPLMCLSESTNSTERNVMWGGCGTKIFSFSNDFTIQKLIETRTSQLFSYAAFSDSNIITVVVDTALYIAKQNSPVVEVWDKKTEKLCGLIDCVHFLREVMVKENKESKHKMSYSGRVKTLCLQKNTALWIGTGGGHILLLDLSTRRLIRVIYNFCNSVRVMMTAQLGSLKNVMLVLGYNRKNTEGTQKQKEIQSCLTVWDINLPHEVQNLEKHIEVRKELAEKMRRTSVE
T2 sequence (Q5S007 whole entry G2019S): as the sequence (Q5S007 whole entry) above, with G2019S counted along it

Turning to `CC(C)Oc1ccc2[nH]nc(-c3cc(N4CCN(CC[C@H]5CCN(CC6CCN(c7ccc8c(c7)C(=O)N(C7CCC(=O)NC7=O)C8=O)CC6)C5)CC4)ncn3)c2c1` (stereo partly drawn) [compound 42, 2-(2,6-dioxopiperidin-3-yl)-5-(4-(((R)-3-(2-(4-(6-(5-isopropoxy-1H-indazol-3-yl)pyrimidin-4-yl)piperazin-1-yl)ethyl)pyrrolidin-1-yl)methyl)piperidin-1-yl)isoindoline-1,3-dione], the Dmax in test [1] and in test [2] was 50 to 70% in each case. Moreover, the DC50 in test [1] and in test [2] was 10 to 50 nM each time.

Regarding `C[C@@H]1CN(c2cc(-c3n[nH]c4ccc(OC5(C)CC5)cc34)ncn2)C[C@H](C)N1CCOCCOCCOc1ccc2c(c1)C(=O)N(C1CCC(=O)NC1=O)C2=O` (stereo partly drawn) [compound 6, 5-[2-(2-{2-[(2R,6S)-2,6-dimethyl-4-{6-[5-(1-methylcyclopropoxy)-1H-indazol-3-yl]pyrimidin-4-yl}piperazin-1-yl]ethoxy}ethoxy)ethoxy]-2-(2,6-dioxopiperidin-3-yl)-2,3-dihydro-1H-isoindole-1,3-dione], the maximal degradation (Dmax) in test [1] and in test [2] was 50 to 70% each time. The DC50 in test [1] and in test [2] was less than 10 nM each time.

`CC1(Oc2ccc3[nH]nc(-c4cc(N5CCO[C@H](CCOCCOCCOCCOc6ccc7c(c6)C(=O)N(C6CCC(=O)NC6=O)C7=O)C5)ncn4)c3c2)CC1` (stereo in doubt) [compound 17, 2-(2,6-dioxopiperidin-3-yl)-5-(2-(2-(2-(2-(4-(6-(5-(1-methylcyclopropoxy)-1H-indazol-3-yl)pyrimidin-4-yl)morpholin-2-yl)ethoxy)ethoxy)ethoxy)ethoxy)isoindoline-1,3-dione]: in test [1], the Dmax was no less than 70% and the 50% degradation concentration (DC50) lay within 10 to 50 nM. In test [2], this compound gave a DC50 of 50 to 100 nM and a Dmax of no less than 70%.

With `C[C@H]1CN(c2cc(-c3n[nH]c4ccc(OC5(C)CC5)cc34)ncn2)CCN1CCOCCN1CCN(c2ccc3c(c2)C(=O)N(C2CCC(=O)NC2=O)C3=O)CC1` (stereo partly drawn) [compound 20, 2-(2,6-dioxopiperidin-3-yl)-5-[4-(2-{2-[(2S)-2-mcthyl-4-{6-[5-(1-methylcyclopropoxy)-1H-indazol-3-yl]pyrimidin-4-yl}piperazin-1-yl]ethoxy}ethyl)piperazin-1-yl]-2,3-dihydro-1H-isoindole-1,3-dione], in test [1], the Dmax was in the range of 50 to 70% and the 50% degradation concentration (DC50) was less than 10 nM. In addition, in test [2], the half-maximal degradation concentration (DC50) was less than 10 nM and the Dmax was in the range of 50 to 70%.

As for `C[C@@H]1CN(c2cc(-c3n[nH]c4ccc(OC5(C)CC5)cc34)ncn2)C[C@H](C)N1CCOCCOCCOCCOc1ccc2c(c1)C(=O)N(C1CCC(=O)NC1=O)C2=O` (stereo partly drawn) [compound 7, 5-{2-[2-(2-{2-[(2R,6S)-2,6-dimethyl-4-{6-[5-(1-methylcyclopropoxy)-1H-indazol-3-yl]pyrimidin-4-yl}piperazin-1-yl]ethoxy}ethoxy)ethoxy]ethoxy}-2-(2,6-dioxopiperidin-3-yl)-2,3-dihydro-1H-isoindole-1,3-dione], in test [1], the Dmax was no less than 70% and the half-maximal degradation concentration (DC50) is less than 10 nM. In test [2], the DC50 was less than 10 nM and the Dmax was 50 to 70%.

On to `CC(C)Oc1ccc2[nH]nc(-c3cc(N4CCO[C@@H](CN5CCN(CC6CCN(c7ccc8c(c7)C(=O)N(C7CCC(=O)NC7=O)C8=O)CC6)CC5)C4)ncn3)c2c1` (stereo partly drawn) [compound 47, 2-(2,6-dioxopiperidin-3-yl)-5-(4-((4-(((S)-4-(6-(5-isopropoxy-1H-indazol-3-yl)pyrimidin-4-yl)morpholin-2-yl)methyl)piperazin-1-yl)methyl)piperidin-1-yl)isoindoline-1,3-dione], for which, in test [1], the Dmax was 50 to 70% and the 50% degradation concentration (DC50) is less than 10 nM. In test [2], the half-maximal degradation concentration (DC50) lay in the range of 10 to 50 nM and the maximal degradation (Dmax) fell in the range of 50 to 70%.

Turning to `CC(C)Oc1ccc2[nH]nc(-c3cc(N4CCN(CCCCN5CCN(c6ccc7c(c6)C(=O)N(C6CCC(=O)NC6=O)C7=O)CC5)[C@@H](C)C4)ncn3)c2c1` (stereo partly drawn) [compound 23, 2-(2,6-dioxopiperidin-3-yl)-5-(4-{4-[(2S)-2-methyl-4-{6-[5-(propan-2-yloxy)-1H-indazol-3-yl]pyrimidin-4-yl}piperazin-1-yl]butyl}piperazin-1-yl)-2,3-dihydro-1H-isoindole-1,3-dione], the Dmax in test [1] and in test [2] was 50 to 70% in each case. In addition, the DC50 in test [1] and in test [2] was less than 10 nM in each case.

As to `CC1(Oc2ccc3[nH]nc(-c4cc(N5CCN(CCN6CCC(CN7CCN(c8ccc9c(c8)C(=O)N(C8CCC(=O)NC8=O)C9=O)CC7)CC6)CC5)ncn4)c3c2)CC1` (stereo not shown) [compound 28, 2-(2,6-dioxopiperidin-3-yl)-5-[4-({1-[2-(4-{6-[5-(1-methylcyclopropoxy)-1H-indazol-3-yl]pyrimidin-4-yl}piperazin-1-yl)ethyl]piperidin-4-yl}methyl)piperazin-1-yl]-2,3-dihydro-1H-isoindole-1,3-dione], in test [1], the maximal degradation (Dmax) was no less than 70% and the DC50 was less than 10 nM. For the same compound, in test [2], the DC50 is less than 10 nM and the Dmax is no less than 70%.

Consider `CC(C)Oc1ccc2[nH]nc(-c3cc(N4CCN(CC[C@@H]5CCN(CC6CCN(c7ccc8c(c7)C(=O)N(C7CCC(=O)NC7=O)C8=O)CC6)C5)CC4)ncn3)c2c1` (stereo partly drawn) [compound 43, 2-(2,6-dioxopiperidin-3-yl)-5-(4-(((S)-3-(2-(4-(6-(5-isopropoxy-1H-indazol-3-yl)pyrimidin-4-yl)piperazin-1-yl)ethyl)pyrrolidin-1-yl)methyl)piperidin-1-yl)isoindoline-1,3-dione], for which, in test [1], the maximal degradation (Dmax) is no less than 70% and the DC50 fell in the range of 10 to 50 nM. For the same compound, in test [2], the DC50 was 10 to 50 nM and the Dmax lay in the range of 50 to 70%.

Consider `CC(C)Oc1ccc2[nH]nc(-c3cc(N4CCN(CC(F)(F)C5CCN(CC6CCN(c7ccc8c(c7)C(=O)N(C7CCC(=O)NC7=O)C8=O)CC6)CC5)CC4)ncn3)c2c1` (stereo not shown) [compound 40, 5-(4-((4-(1,1-difluoro-2-(4-(6-(5-isopropoxy-1H-indazol-3-yl)pyrimidin-4-yl)piperazin-1-yl)ethyl)piperidin-1-yl)methyl)piperidin-1-yl)-2-(2,6-dioxopiperidin-3-yl)isoindoline-1,3-dione], for which, in test [1], the Dmax was no less than 70% and the DC50 lay within 10 to 50 nM. In test [2], the DC50 is 10 to 50 nM and the greatest degradation seen (Dmax) fell in the range of 50 to 70%.

With `CC(C)Oc1ccc2[nH]nc(-c3cc(N4CCN(CCN5CCC(CN6CCN(c7ccc8c(c7)C(=O)N(C7CCC(=O)NC7=O)C8=O)CC6)CC5)[C@@H](C)C4)ncn3)c2c1` (stereo partly drawn) [compound 30, 2-(2,6-dioxopiperidin-3-yl)-5-{4-[(1-{2-[(2S)-2-methyl-4-{6-[5-(propan-2-yloxy)-1H-indazol-3-yl]pyrimidin-4-yl}piperazin-1-yl]ethyl}piperidin-4-yl)methyl]piperazin-1-yl}-2,3-dihydro-1H-isoindole-1,3-dione], in test [1], the Dmax is no less than 70% and the DC50 is less than 10 nM. Further, in test [2], the half-maximal degradation concentration (DC50) is less than 10 nM and the Dmax was no less than 70%.

Turning to `CC(C)Oc1ccc2[nH]nc(-c3cc(N4CCN(CCN5CC(CCN6CCN(c7ccc8c(c7)C(=O)N(C7CCC(=O)NC7=O)C8=O)CC6)C5)CC4)ncn3)c2c1` (stereo not shown) [compound 46, 2-(2,6-dioxopiperidin-3-yl)-5-(4-(2-(1-(2-(4-(6-(5-isopropoxy-1H-indazol-3-yl)pyrimidin-4-yl)piperazin-1-yl)ethyl)azetidin-3-yl)ethyl)piperazin-1-yl)isoindoline-1,3-dione], in test [1], the Dmax is 50 to 70% and the DC50 was less than 10 nM.
